In one assay the test system is Chironomus riparius. As to the kind of experiment: Larvicidal activity against Chironomus riparius. Type of assay: functional.
In assay [1] the test system is Spodoptera litura. Put plainly: Larvicidal activity Spodoptera litura third-instar larva fed on 500 ppm compound pre-treated castor leaf disks for 24 hr followed by larval maintenance on fresh castor leaves assessed as insect mortality measured after 96 hr. The format is functional.
Assay [2] has as its system Spodoptera litura. As to the kind of experiment: Larvicidal activity Spodoptera litura third-instar larva fed on 1000 ppm compound pre-treated castor leaf disks for 24 hr followed by larval maintenance on fresh castor leaves assessed as insect mortality measured after 96 hr. The format is functional.
For assay [3], the system named is Spodoptera litura. As to the kind of experiment: Antifeedant activity against Spodoptera litura third-instar larva fed on compound pre-treated castor leaf disks measured after 24 hr by leaf-disk no-choice method (reference value: 2.09 +/- 0.94%). The format is functional. Conditions: for LC50: Spodoptera litura, foliar.
The test system of assay [4] is Spodoptera litura. As to the kind of experiment: Antifeedant activity against Spodoptera litura third-instar larva fed on 1000 ppm compound pre-treated castor leaf disks measured after 24 hr by leaf-disk no-choice method (reference value: 2.09 +/- 0.94%). The format is functional.
For assay [5], the system named is Spodoptera litura. As to the kind of experiment: Pupicidal activity Spodoptera litura third-instar larva fed on 125 ppm compound pre-treated castor leaf disks for 24 hr followed by larval maintenance on fresh castor leaves until pupae formation assessed as pupal mortality (reference value: 8.0 +/- 4.47%). Type of assay: functional.
For assay [6], the system named is Spodoptera litura. As to the kind of experiment: Larvicidal activity Spodoptera litura third-instar larva fed on compound pre-treated castor leaf disks for 24 hr followed by larval maintenance on fresh castor leaves assessed as insect mortality measured after 96 hr. The format is functional. The settings on record: for LC50: Spodoptera litura, foliar.
Assay [7] concerns Spodoptera litura. As to the kind of experiment: Antifeedant activity against Spodoptera litura third-instar larva fed on 500 ppm compound pre-treated castor leaf disks measured after 24 hr by leaf-disk no-choice method (reference value: 2.09 +/- 0.94%). The format is functional.
The subject of assay [8] is Spodoptera litura. Put plainly: Larvicidal activity Spodoptera litura third-instar larva fed on 125 ppm compound pre-treated castor leaf disks for 24 hr followed by larval maintenance on fresh castor leaves assessed as insect mortality measured after 96 hr. The format is functional.
The test system of assay [9] is Spodoptera litura. Put plainly: Pupicidal activity Spodoptera litura third-instar larva fed on 250 ppm compound pre-treated castor leaf disks for 24 hr followed by larval maintenance on fresh castor leaves until pupae formation assessed as pupal mortality (reference value: 8.0 +/- 4.47%). Type of assay: functional.
The test system of assay [10] is Spodoptera litura. As to the kind of experiment: Insecticidal activity Spodoptera litura third-instar larva fed on 125 ppm compound pre-treated castor leaf disks for 24 hr followed by larval maintenance on fresh castor leaves assessed as total mortality (reference value: 8%). The format is functional.
Assay [11] deals with Spodoptera litura. As to the kind of experiment: Antifeedant activity against Spodoptera litura third-instar larva fed on 125 ppm compound pre-treated castor leaf disks measured after 24 hr by leaf-disk no-choice method (reference value: 2.09 +/- 0.94%). Type of assay: functional.
For assay [12], the system named is Spodoptera litura. As to the kind of experiment: Antifeedant activity against Spodoptera litura third-instar larva fed on 250 ppm compound pre-treated castor leaf disks measured after 24 hr by leaf-disk no-choice method (reference value: 2.09 +/- 0.94%). Type of assay: functional.
Assay [13] deals with Spodoptera litura. Put plainly: Insecticidal activity Spodoptera litura third-instar larva fed on 250 ppm compound pre-treated castor leaf disks for 24 hr followed by larval maintenance on fresh castor leaves assessed as total mortality (reference value: 8%). The format is functional.
Assay [14] concerns Spodoptera litura. Put plainly: Larvicidal activity Spodoptera litura third-instar larva fed on 250 ppm compound pre-treated castor leaf disks for 24 hr followed by larval maintenance on fresh castor leaves assessed as insect mortality measured after 96 hr. The format is functional.
The test system of assay [15] is Spodoptera litura. Put plainly: Insecticidal activity Spodoptera litura third-instar larva fed on 500 ppm compound pre-treated castor leaf disks for 24 hr followed by larval maintenance on fresh castor leaves assessed as total mortality (reference value: 8%). The format is functional.
Assay [16] concerns Spodoptera litura. As to the kind of experiment: Pupicidal activity Spodoptera litura third-instar larva fed on 500 ppm compound pre-treated castor leaf disks for 24 hr followed by larval maintenance on fresh castor leaves until pupae formation assessed as pupal mortality (reference value: 8.0 +/- 4.47%). The format is functional.
For assay [17], the system named is Spodoptera litura. As to the kind of experiment: Pupicidal activity Spodoptera litura third-instar larva fed on 1000 ppm compound pre-treated castor leaf disks for 24 hr followed by larval maintenance on fresh castor leaves until pupae formation assessed as pupal mortality (reference value: 8.0 +/- 4.47%). The format is functional.
The test system of assay [18] is Spodoptera litura. Put plainly: Insecticidal activity Spodoptera litura third-instar larva fed on 1000 ppm compound pre-treated castor leaf disks for 24 hr followed by larval maintenance on fresh castor leaves assessed as total mortality (reference value: 8%). Type of assay: functional.
Assay [19] deals with Spodoptera litura. Put plainly: Insecticidal activity Spodoptera litura third-instar larva fed on 1000 ppm compound pre-treated castor leaf disks for 24 hr followed by larval maintenance on fresh castor leaves assessed as induction of abnormalities. Type of assay: functional, organism-based.
Another assay relates to Helicoverpa armigera. Put plainly: Antifeedant activity against Helicoverpa armigera at 1000 ppm. The format is functional.

The record followed here is ChEMBL document CHEMBL3045183, “Bioefficacy of violacein against Asian armyworm Spodoptera litura Fab. (Lepidoptera: Noctuidae)” (2012).

Converted amounts (≈) assume the structure as drawn. The source made the active and inactive calls. No cut-off for these calls is given here.

Take `[C-]#[N+][C@@H]1[C@H]2c3c[nH]c4cccc(c34)C(C)(C)[C@H]2CC[C@@]1(C)C=C` [12-EPI-HAPALINDOLE J ISONITRILE]: the Activity in the assay on Chironomus riparius is given as 100%.

In the case of `C/C=C(\C)C(=O)O[C@H]1C[C@@H](OC(C)=O)[C@@]2(C(=O)OC)CO[C@H]3[C@@H](O)[C@@](C)([C@]45O[C@@]4(C)[C@@H]4C[C@H]5O[C@@H]5OC=C[C@@]54O)[C@H]4[C@]1(CO[C@]4(O)C(=O)OC)[C@@H]32` [AZADIRACHTIN A], the mortality – broadly, the percentage killed – is 93.55% in the assay on Spodoptera litura [1]; 100% in the assay on Spodoptera litura [2]; 28% in the assay with Spodoptera litura [5]; 57.33% with Spodoptera litura [8]; 28% in the assay with Spodoptera litura [9]; 85.33% with Spodoptera litura [10]. Further, the mortality was found to be 98.28% with Spodoptera litura [13] and 70.21% with Spodoptera litura [14]. Also, the LC90 in the assay with Spodoptera litura [3] is 3278.46 ppm; in the assay with Spodoptera litura [6], 412.78 ppm. Also, the values for the LC50 in the assay on Spodoptera litura [3] and in the assay with Spodoptera litura [6] were 134 µg/mL (≈ 186 µM) and 119 µg/mL (≈ 165 µM), respectively. Moreover, the AFI in the assay with Spodoptera litura [4] is reported as 79.41%; in the assay on Spodoptera litura [7] it was 70.49%; in the assay on Spodoptera litura [11], 49.67%; with Spodoptera litura [12], 61.31%.

In the case of `O=C1NC(c2c[nH]c3ccc(O)cc23)=C/C1=C1\C(=O)Nc2ccccc21` [VIOLACEIN], the mortality came to 68.88% in the assay with Spodoptera litura [1]; 77.1% in the assay on Spodoptera litura [2]; 89.58% with Spodoptera litura [15]; 20.7% in the assay on Spodoptera litura [16]; 22% in the assay on Spodoptera litura [5]; 29.11% in the assay with Spodoptera litura [8]. The mortality turned out to be 24% with Spodoptera litura [9]; 22% with Spodoptera litura [17]; 51.11% in the assay on Spodoptera litura [10]; 99.1% in the assay on Spodoptera litura [18]; 77.99% in the assay with Spodoptera litura [13]; 53.99% in the assay with Spodoptera litura [14]. For the same molecule, the LC90 is on record as 3649.91 ppm in the assay on Spodoptera litura [3] and 2016.71 ppm in the assay on Spodoptera litura [6]. The LC50 (in general, the concentration that kills 50% of the test population) in the assay on Spodoptera litura [3] came to 392 µg/mL (≈ 1140 µM); in the assay with Spodoptera litura [6], 255 µg/mL (≈ 743 µM). Besides, the AFI in the assay on Spodoptera litura [4] is recorded as 72.46%; in the assay with Spodoptera litura [7] it was 55.16%; with Spodoptera litura [11], 28.66%; with Spodoptera litura [12] it was 39.69%; with Helicoverpa armigera, greater than 80%. Moreover, the result in the assay on Spodoptera litura [19] was Active.
